Reference: patent US6369109B1, “Betulinic acid and derivatives thereof useful for the treatment of neuroectodermal tumor” (Deutsches Krebsforschungszentrum Stiftung des Offentlichen …, priority 1998, dated 2002)
“Also recorded” adds a separate entry of the source. Residues, ends and D or L forms follow the SMILES beside them. *: point of attachment. Cbz = O=C(OCc1ccccc1)*; CH2F = FC*

Tests used:
[1] = test system: SH-EP neuroblastoma cells; test: Mitochondrial potential (DiOC6(3)), ROS (HE) and lipid peroxidation (NAO) by flow cytometry; format: cell-based, human; conditions: FIG. 12B
Procedure: The cationic lipophilic fluorochrome DiOC6(3)(460 ng/ml, Molecular Probes, Eugene, Oreg.) was used to measure the Δ¥m. HE(126 ng/ml. Molecular probes) was used to determine ROS generation, and NAO (94 ng/ml, Molecular Probes) was used to determine lipid peroxidation. Kroemer et al, 1997, Immunol. Today. 18:44-51. Cells were incubated for 12 min at 37° C. in the presence of the fluorochromes, washed in PBS/1% FCS, and immediately analyzed by flow cytometry (FACScan, Becton Dickinson). DiOC6(3) and NAO fluorescence were recorded in fluorescence 1; He fluorescence was assessed in fluorescence 3. The percentage of cells with low mitochondrial potential or enhanced ROS production was calculated in comparison to untreated control cells.
SH-EP neuroblastoma cells were treated with 10 μg/ml betulinic acid for the indicated times. Cells were stained with the fluorochrome DiOC6(3) to determine ΔΨm and with HE to determine ROS generation and analyzed by flow cytometry. Fold increase in cells with low ΔΨm [DiOC6(3)^low] or with enhanced ROS production (HE+) is shown.
SH-EP neuroblastoma cells treated with 10 μg/ml […] for 24 h (heavy line) or control cells (thin line) were strained with NAO to assess oxidized cardiolipin and analyzed by flow cytomety.
For determination of mitochondrial membrane potential, cells (5×10^5/ml) were incubated with 3,3′-dihexyloxacarbocyanide iodide (DiOC6(3), 40 nM, Molecular Probes, Inc., Eugene, Oreg.) for 15 min at 37° C. and analyzed on a flow cytometer (FACScan) (Zamzarni et al., 1996 J. Exp. Med. 183:1533-44). For cell sorting, cells were stained with DiOC6(3) and sorted into DiOC6(3)^high and DiOC6(3)^low cells on a cytofluorometer (FACS Vantage, Becton Dickinson). As a control, cells were treated with the uncoupling agent carbonyl cyanide m-chlorophenylhydrazone (mCICCP, 200 μM, Sigma).
(§1) SHEP cells transfected with Bcl-2 or BCl-XL or a neomycin resistance vector only (Neo) were treated with 0.5 μg/ml Doxorubicin or 10 μg/ml Betulinic acid for 48 h (A) or 24 h (B and C). Cells transfected with a neomycin resistance vector only (Neo) were treated in the presence or absence of 50 μm BA or 60 μm zVAD-fmk. Nuclear apoptosis was determined by FACS analysis or propidium iodide-stained DNA content in intact cells (A) or in a CFS incubating isolated nuclei with mitochondria from cells treated with Doxo or betulinic acid (C). ΔΨm was determined by staining cells with the potential-sensitive fluorochrome DiOC6(3) (B).

[2] = test system: SH-EP neuroblastoma cells; test: Specific apoptosis, FACS analysis of propidium iodide-stained nuclei; format: cell-based, human; conditions: for effect of CD95 blockage by F(ab′)2 anti-APO-1 on drug-induced apoptosis: 10 μg/ml antibody fragments 1 h before drug, 10 μg/ml betulinic acid, 50 μg/ml VP-16, 10 μg/ml cisplatinum, 0.5 μg/ml doxorubicin, 72 h, FIG. 3B
Procedure: Quantification of DNA fragmentation was performed by FACS analysis of propidium iodide stained nuclei as described in Nicoletti et al, 1991, J. Immunol. Methods. 139: 271-279. Cells were analyzed for DNA content by flow. cytometry (FACScan, Becton Dickinson, Heidelberg, Germany) using CELLQuest software. Early apoptotic changes were identified by staining with biotinylated annexin V (Bender Med Systems, Vienna, Austria) following the manufacturer's instructions. Annexin V binds to exposed phosphatidylserine on the surface of apoptotic cells. Koopman et al, 1994, Blood. 84:1415-1420. Cells were analyzed by flow cytometry (FAC-Scan. Becton Dickinson) using CELLQuest software.
Cells were treated with 10 μg/ml betulinic acid for 72 h. Apoptosis was assessed by FACS analysis of propidium iodide-stained nuclei. Percentage of specific apoptosis was calculated as follows: experimental apoptosis (%) −spontaneous apoptosis in medium (%)/[100%−spontaneous apoptosis in medium (%)]×100%. […]
Cells were incubated for indicated times with doxorubicin, betulinic acid or anti-APO-1 and harvested by trypsinization using 0.05% trypsin and 0.02% EDTA without Ca^2+and Mg^2+(Life Technologies, Inc.). Quantification of DNA fragmentation was performed by FACS analysis of propidium iodide stained nuclei as previously described in Nicoletti et al., J. ImmunoL Methods 139:271-279, using CELLQuest software (Becton Dickinson, Heidelberg, Germany).
as §1

SMILES	effect of inhibitor on drug-triggered ΔΨm loss ([1]; 50 μM bongkrekic acid, doxorubicin or betulinic acid)	effect of CD95 blockage by F(ab′)2 anti-APO-1 on drug-induced apoptosis [2]	effect of inhibitor on drug-triggered nuclear fragmentation ([2]; 50 μM bongkrekic acid, doxorubicin or betulinic acid, FIG. 12A)	effect of inhibitor on betulinic acid-induced ΔΨm dissipation ([1]; 60 μM zVAD-fmk)	effect of inhibitor on doxorubicin-induced loss of ΔΨm ([1]; 60 μM zVAD-fmk)	effect of inhibitor on betulinic acid-induced apoptosis ([2]; 60 μM zVAD-fmk, 10 μg/ml betulinic acid 72 h, FIG. 2D)	effect of inhibitor on betulinic acid-induced nuclear fragmentation ([2]; 60 μM zVAD-fmk, FIG. 12A)	effect of inhibitor on doxorubicin-induced nuclear fragmentation ([2]; 60 μM zVAD-fmk, FIG. 12A)	loss of ΔΨm in intact SHEP cells ([1]; 0.5 μg/ml doxorubicin or 10 μg/ml betulinic acid, 24 h)	nuclear fragmentation in intact SHEP cells ([2]; 0.5 μg/ml doxorubicin or 10 μg/ml betulinic acid, 48 h, FIG. 12A)
CO[C@H](C/C=C\C=C\CC/C=C/C[C@H](C)/C=C/C(=C\C(=O)O)CC(=O)O)/C(C)=C\C=C(/C)C(=O)O [bongkrekic acid]	inhibited drug-triggered nuclear fragmentation and ΔΨm loss	did not inhibit	inhibited drug-triggered nuclear fragmentation and ΔΨm loss							
COC(=O)C[C@H](NC(=O)[C@H](C)NC(=O)[C@@H](NC(=O)OCc1ccccc1)C(C)C)C(=O)CF [zVAD-fmk, benzyloxycarbonyl-Val-Ala-Asp-Fluoromethylketone] (Cbz-Val-Ala-Asp(OMe)-CH2F)				had no effect	both inhibited	almost completely abrogated apoptosis	only affected the betulinic acid-induced nuclear fragmentation	both inhibited		
COc1cccc2c1C(=O)c1c(O)c3c(c(O)c1C2=O)C[C@@](O)(C(=O)CO)C[C@@H]3O[C@H]1C[C@H](N)[C@H](O)[C@H](C)O1 [doxorubicin]		significantly blocked; also recorded: markedly reduced							induced loss of ΔΨm and nuclear fragmentation	induced loss of ΔΨm and nuclear fragmentation
